These results are taken from PMC7340254, “Structure-based screening of binding affinities via small-angle X-ray scattering” (IUCrJ, 2020).

Where two headings read alike, the source gives them in different places.

The target of experiment [1] is T1, aspartate/glutamate-binding protein (DEBP) (Escherichia coli, UniProt P37902).
T1 construct: made in house; host or cells: E. coli BL21(DE3)
The experiment is described as follows: SAXS-based ligand titration. Details: species or system E. coli. The source says: Their preliminary results have been excluded from this report.

The next experiment has as its target DEBP. On the set-up: method as in Clifton & Jackson (2016). The settings on record: ref Clifton & Jackson (2016), read-out: K D (ITC, literature); cited from earlier work.
The target of a further experiment is GlnBP. On the set-up: method as in Clifton & Jackson (2016). The following applies: ref Clifton & Jackson (2016), read-out: K D (ITC, literature); cited from earlier work.
A further experiment deals with HisBP. On the set-up: method as in Paul et al. (2016). The following applies: ref Paul et al. (2016), read-out: K D (ITC, literature); cited from earlier work.
The target in experiment [2] is T2, histidine-binding protein (HisBP) (Escherichia coli, UniProt P0AEU0). Put plainly: biochemical.
Protocol: (§1) Titrations were conducted at fixed protein concentrations to exclude signal-to-noise factors. An initial mass concentration of 2.0 or 4.0 mg ml^−1 was employed in prospective experiments, then scaled to 2.0, 1.0, 0.5 and 0.25 mg ml^−1 in later concentration-variation studies. […] A total of eight beamline experiments were conducted, using the automated sample changing environments available on site, operated in constant-flow mode: three times at ESRF BM29, three at DESY P12, once at Australian Synchrotron SAXS/WAXS and once at Diamond B21. […] Furthermore, experiments at ESRF BM29 and Diamond B21 were carried out on site, while the DESY P12 experiment was carried out by mail-in. For these measurements, samples were prepared by pipetting ligand–protein mixtures onto 96-well plates prior to transport. As for the Australian Synchrotron measurements, apo–HisBP was lyophilized in its final buffer and reconstituted on site using pure H2O and then mixed with the ligands in 96-well plates.
(§2) Buffer-subtracted intensities provided from respective synchrotron pipelines were used as starting points for analysis. […] Thus, an intermediate value of 7.2 nm was fixed for all computations involving D max including V R.
(§3) This was used to assist in locating data points affected by sample handling errors or measurement failures, along with detectable aggregation. The ideal minimum angle after removal of parasitic scattering is 0.1–0.15 nm^−1, although a more conservative cutoff was used to collectively eliminate residual aggregation. The maximum usable q was determined by visual inspection of noise. The final ranges used across all HisBP beamline sessions were: 0.2–2.0 nm^−1 at 20 µM and below, 0.25–2.5 nm^−1 at 40 µM, and 0.3–3 nm^−1 above 80 µM. The q-ranges for DEBP and GlnBP were set to 0.1–2.8 nm^−1.
(§4) A common scattering reference is created per HisBP concentration and per beamline experiment by averaging apo protein replicates after discarding outliers. This reference is used for both V R and χlin computations.
(§5) To fit binding curves against metrics, we consider all titrations conducted per protein concentration per beamline experiment as a single set, after removing data points resulting from aggregation, preparation errors or measurement errors. […] Since the two-state binding curve at constant [R] cannot effectively discriminate between K D values much larger or smaller than [R], fitted K D values are limited to within four orders of magnitude of the receptor concentration (cf. Fig. S1). […] Error bars indicate σ of logK D from the ensemble of replicate predictions. For metrics where uncertainty was not computed (V R and V P), the uncertainty was estimated by single-point removal, where K D was recomputed after removal of each titration point. The σ of the resulting replicates are taken as the σ of logK D. To eliminate cases where the fitting process fails due to ill-constrained parameters, replicates were discarded if the fitted apo–holo differences were >3σ from the mean value of all replicates.
Experiment [3] addresses T2, histidine-binding protein (HisBP). The following applies: His:HisBP.
Protocol: as §1, §2, §3, §4, §5
The target is the same in experiment [4]. The experiment is described as follows: biochemical. This is another data set of the same source.
Protocol: All ITC measurements were conducted on a Malvern MicroCal PEAQ ITC at 20°C with stirring at 200 rev min^−1 using the same buffer as in SAXS measurements. The cell was initially loaded with 200 µl of 20 µM protein with an initial ligand concentration of 200 µM in the syringe to quantify His:HisBP binding. This was further adjusted in subsequent runs to resolve weaker interactions as necessary.
The mark [5] stands for this setting: K D fitted to SAXS V R titration curves, AustSynch, 20s exposure, […] 10^13 photons, HisBP 19 µM.
The mark [6] stands for this setting: K D fitted to SAXS V R titration curves, AustSynch, 20s exposure, […] 10^13 photons, HisBP […] µM.
The mark [7] stands for this setting: K D fitted to SAXS V R titration curves, AustSynch, 20s exposure, […] 10^13 photons, HisBP 76 µM.
Where [8] appears, read: K D fitted to SAXS V R titration curves, DESY, 4s exposure, […] 10^13 photons, HisBP 10 µM.
Setting [9] is: K D fitted to SAXS V R titration curves, DESY, 4s exposure, […] 10^13 photons, HisBP 20 µM.
Setting [10] is: K D fitted to SAXS V R titration curves, DESY, 4s exposure, […] 10^13 photons, HisBP 40 µM.
The mark [11] stands for this setting: K D fitted to SAXS V R titration curves, DESY, 4s exposure, […] 10^13 photons, HisBP 80 µM.
Setting [12] is: K D fitted to SAXS V R titration curves, Diamond, 40s exposure, […] 10^14 photons, HisBP 10 µM.
Where [13] appears, read: K D fitted to SAXS V R titration curves, Diamond, 40s exposure, […] 10^14 photons, HisBP 20 µM.
Where [14] appears, read: K D fitted to SAXS V R titration curves, Diamond, 40s exposure, […] 10^14 photons, HisBP 40 µM.
[15] abbreviates: K D fitted to SAXS V R titration curves, Diamond, 40s exposure, […] 10^14 photons, HisBP 80 µM.
[16] abbreviates: K D fitted to SAXS V R titration curves, ESRF, 5s exposure, 3.0 × 10^12 photons, HisBP 160 µM.
The mark [17] stands for this setting: KD fitted to SAXS Rg curves, AustSynch, 20s exposure, HisBP […] µM.
[18] abbreviates: KD fitted to SAXS Rg curves, AustSynch, 20s exposure, HisBP 76 µM.
[19] abbreviates: KD fitted to SAXS Rg curves, DESY, 4s exposure, HisBP 10 µM.
Setting [20] is: KD fitted to SAXS Rg curves, DESY, 4s exposure, HisBP 20 µM.
The mark [21] stands for this setting: KD fitted to SAXS Rg curves, DESY, 4s exposure, HisBP 40 µM.
Where [22] appears, read: KD fitted to SAXS Rg curves, DESY, 4s exposure, HisBP 80 µM.
[23] abbreviates: KD fitted to SAXS Rg curves, ESRF, 5s exposure, HisBP 160 µM.
[24] abbreviates: KD fitted to SAXS Vc curves, AustSynch, 20s exposure, HisBP […] µM.
[25] abbreviates: KD fitted to SAXS Vc curves, AustSynch, 20s exposure, HisBP 76 µM.
[26] abbreviates: KD fitted to SAXS Vc curves, DESY, 4s exposure, HisBP 40 µM.
Where [27] appears, read: KD fitted to SAXS Vc curves, DESY, 4s exposure, HisBP 80 µM.
The mark [28] stands for this setting: KD fitted to SAXS Vc curves, ESRF, 5s exposure, HisBP 160 µM.
Setting [29] is: KD fitted to SAXS χlin. curves, AustSynch, 20s exposure, HisBP […] µM.
The mark [30] stands for this setting: KD fitted to SAXS χlin. curves, AustSynch, 20s exposure, HisBP 76 µM.
Where [31] appears, read: KD fitted to SAXS χlin. curves, DESY, 4s exposure, HisBP 10 µM.
Setting [32] is: KD fitted to SAXS χlin. curves, DESY, 4s exposure, HisBP 20 µM.
[33] abbreviates: KD fitted to SAXS χlin. curves, DESY, 4s exposure, HisBP 40 µM.
Setting [34] is: KD fitted to SAXS χlin. curves, DESY, 4s exposure, HisBP 80 µM.
[35] abbreviates: KD fitted to SAXS χlin. curves, Diamond, 40s exposure, HisBP 40 µM.
Where [36] appears, read: KD fitted to SAXS χlin. curves, Diamond, 40s exposure, HisBP 80 µM.
Where [37] appears, read: KD fitted to SAXS χlin. curves, ESRF, 5s exposure, HisBP 152 µM.

T1 sequence (P37902 28-302): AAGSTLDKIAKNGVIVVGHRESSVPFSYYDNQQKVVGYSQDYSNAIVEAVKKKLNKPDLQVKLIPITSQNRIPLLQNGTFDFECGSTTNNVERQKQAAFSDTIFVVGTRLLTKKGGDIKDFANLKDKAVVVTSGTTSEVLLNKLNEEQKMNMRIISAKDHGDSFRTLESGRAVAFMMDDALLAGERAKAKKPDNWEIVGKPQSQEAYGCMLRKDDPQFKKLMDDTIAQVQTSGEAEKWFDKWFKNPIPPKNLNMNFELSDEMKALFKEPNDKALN
T2 sequence (P0AEU0 23-260): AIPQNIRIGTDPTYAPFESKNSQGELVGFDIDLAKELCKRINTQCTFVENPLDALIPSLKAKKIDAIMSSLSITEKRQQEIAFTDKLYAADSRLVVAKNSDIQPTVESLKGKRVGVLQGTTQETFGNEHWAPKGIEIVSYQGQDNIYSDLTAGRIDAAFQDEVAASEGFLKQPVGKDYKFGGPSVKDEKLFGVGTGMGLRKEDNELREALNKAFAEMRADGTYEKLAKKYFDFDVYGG

With `NC(=O)C[C@H](N)C(=O)O` [Asn], the “binding suggested by SAXS titrations” value in experiment [1] (DEBP, 2 mg ml^−1, 10^12 photons) was “unexpected binding”.
In the case of `N[C@@H](CC(=O)O)C(=O)O` [Asp, aspartate], the Kd at DEBP is 1.73 ± 0.49 µM.
As for `NC(=O)CC[C@H](N)C(=O)O` [Gln, glutamine], at GlnBP, the Kd is 0.106 ± 0.065 µM.
Consider `N[C@@H](CCC(=O)O)C(=O)O` [Glu, glutamate], for which the “SAXS R g Exp. (saturated)” value in experiment [1] (Glu:DEBP, ligand-excess conditions) turned out to be 20.6 ± 1.3 Å. Moreover, in experiment [1] (Glu:DEBP, saturated versus apo), the “SAXS ΔR g” value was −2.6 Å. Moreover, on DEBP, the Kd is 0.334 ± 0.12 µM.
With `N[C@@H](Cc1c[nH]cn1)C(=O)O` [His, histidine], the Kd is 0.064 ± 0.01 µM at HisBP; 0.062 ± 0.028 µM in experiment [2] (setting [5]); 1.5 ± 0.7 µM in experiment [2] (setting [6]); 3.6 ± 0.74 µM in experiment [2] (setting [7]); 84 ± 68 µM in experiment [2] (setting [8]); 1 ± 0.19 µM in experiment [2] (setting [9]). In addition, the Kd worked out at 3.7 ± 0.58 µM in experiment [2] (setting [10]); 6.4 ± 1.1 µM in experiment [2] (setting [11]); 0.0014 ± 0.00092 µM in experiment [2] (setting [12]); 0.0051 ± 0.0041 µM in experiment [2] (setting [13]); 0.013 ± 0.011 µM in experiment [2] (setting [14]); 1.3 ± 0.5 µM in experiment [2] (setting [15]). The Kd stood at 0.24 ± 0.14 µM in experiment [2] (K D fitted to SAXS V R titration curves, ESRF, 5s exposure, 3.0 × 10^12 photons, HisBP […] µM); 0.37 ± 0.47 µM in experiment [2] (setting [16]); 6.3 ± 0.87 µM in experiment [2] (setting [17]); 1.7 ± 0.87 µM in experiment [2] (setting [18]); 100 ± 140 µM in experiment [2] (setting [19]); 0.0027 ± 0.0047 µM in experiment [2] (setting [20]). In addition, the Kd in experiment [2] (setting [21]) was found to be 4.2 ± 2.4 µM; in experiment [2] (setting [22]) it was 8.2 ± 1.8 µM; in experiment [2] (KD fitted to SAXS Rg curves, Diamond, 40s exposure, HisBP 10 µM), 0.018 µM; in experiment [2] (KD fitted to SAXS Rg curves, Diamond, 40s exposure, HisBP 20 µM) it was 0.015 µM; in experiment [2] (KD fitted to SAXS Rg curves, Diamond, 40s exposure, HisBP 80 µM) it was 2.2 ± 3.1 µM; in experiment [2] (KD fitted to SAXS Rg curves, ESRF, 5s exposure, HisBP […] µM), 0.16 µM. For the same compound, the Kd is 0.61 ± 0.12 µM in experiment [2] (setting [23]); 0.16 µM in experiment [2] (KD fitted to SAXS Vc curves, AustSynch, 20s exposure, HisBP 19 µM); 5.3 ± 3.7 µM in experiment [2] (setting [24]); 25 ± 8.1 µM in experiment [2] (setting [25]); 19 µM in experiment [2] (setting [26]); 5.8 µM in experiment [2] (setting [27]). Moreover, the Kd in experiment [2] (KD fitted to SAXS Vc curves, Diamond, 40s exposure, HisBP 80 µM) was determined as 9.9 µM; in experiment [2] (KD fitted to SAXS Vc curves, ESRF, 5s exposure, HisBP 7.6 µM) it was 2.8 µM; in experiment [2] (KD fitted to SAXS Vc curves, ESRF, 5s exposure, HisBP […] µM), 200 ± 490 µM; in experiment [2] (setting [28]), 0.88 ± 2.4 µM; in experiment [2] (KD fitted to SAXS χlin. curves, AustSynch, 20s exposure, HisBP 19 µM), 1.2 µM; in experiment [2] (setting [29]), 4.5 ± 1.5 µM. Besides, the Kd stood at 5.1 ± 0.75 µM in experiment [2] (setting [30]); 4.4 ± 2.8 µM in experiment [2] (setting [31]); 2.9 ± 1.5 µM in experiment [2] (setting [32]); 13 ± 3.5 µM in experiment [2] (setting [33]); 15 ± 1.9 µM in experiment [2] (setting [34]); 0.07 µM in experiment [2] (KD fitted to SAXS χlin. curves, Diamond, 40s exposure, HisBP 20 µM). The Kd in experiment [2] (setting [35]) was 4.3 ± 4.7 µM; in experiment [2] (setting [36]) it was 20 ± 3.4 µM; in experiment [2] (KD fitted to SAXS χlin. curves, ESRF, 5s exposure, HisBP 7.6 µM), 0.5 µM; in experiment [2] (KD fitted to SAXS χlin. curves, ESRF, 5s exposure, HisBP […] µM), 0.099 µM; in experiment [2] (setting [37]) it was 0.32 ± 0.051 µM; in experiment [4], 0.048 ± 0.0052 µM. In experiment [3] (ligand-excess conditions), the “SAXS R g Exp. (saturated)” value worked out at 18.3 ± 1.0 Å. Also, the “SAXS ΔR g” value in experiment [3] (saturated versus apo) is −1.3 Å.
For `NCCCC[C@H](N)C(=O)O` [Lys, lysine], the Kd is 19.5 ± 6 µM at HisBP; 110 ± 10 µM in experiment [2] (setting [5]); 32 ± 4.6 µM in experiment [2] (setting [6]); 95 ± 11 µM in experiment [2] (setting [7]); 0.0023 ± 0.0016 µM in experiment [2] (setting [8]); 61 ± 6.4 µM in experiment [2] (setting [9]). The Kd in experiment [2] (setting [10]) amounted to 720 ± 350 µM; in experiment [2] (setting [11]) it was 58 ± 7.5 µM; in experiment [2] (setting [12]) it was 230 ± 200 µM; in experiment [2] (setting [13]), 47 ± 3.6 µM; in experiment [2] (setting [14]), 320 ± 210 µM; in experiment [2] (setting [15]), 89 ± 9.6 µM. The Kd was 49 ± 4.1 µM in experiment [2] (setting [16]); 460 ± 230 µM in experiment [2] (KD fitted to SAXS Rg curves, AustSynch, 20s exposure, HisBP 19 µM); 340 ± 120 µM in experiment [2] (setting [17]); 0.031 ± 0.025 µM in experiment [2] (setting [18]); 1.3 ± 2.5 µM in experiment [2] (setting [19]); 38 ± 28 µM in experiment [2] (setting [20]). For the same compound, the Kd in experiment [2] (setting [21]) was 0.086 µM; in experiment [2] (setting [22]), 36 ± 42 µM; in experiment [2] (KD fitted to SAXS Rg curves, Diamond, 40s exposure, HisBP 40 µM) it was 1500 ± 3200 µM; in experiment [2] (setting [23]) it was 71 ± 8.9 µM; in experiment [2] (setting [24]), 450 ± 510 µM; in experiment [2] (setting [25]), 9.5 µM. The Kd is 0.18 µM in experiment [2] (KD fitted to SAXS Vc curves, DESY, 4s exposure, HisBP 10 µM); 44 µM in experiment [2] (KD fitted to SAXS Vc curves, DESY, 4s exposure, HisBP 20 µM); 2.8 µM in experiment [2] (setting [26]); 9 µM in experiment [2] (setting [27]); 57 µM in experiment [2] (KD fitted to SAXS Vc curves, Diamond, 40s exposure, HisBP 40 µM); 280 ± 450 µM in experiment [2] (setting [28]). In addition, the Kd in experiment [2] (setting [29]) is 150 ± 46 µM; in experiment [2] (setting [30]), 130 ± 14 µM; in experiment [2] (setting [31]), 0.46 ± 0.5 µM; in experiment [2] (setting [32]), 2.1 ± 3.2 µM; in experiment [2] (setting [33]) it was 160 ± 230 µM; in experiment [2] (setting [34]), 150 ± 40 µM. Besides, the Kd came to 4500 ± 3400 µM in experiment [2] (setting [35]), 260 ± 150 µM in experiment [2] (setting [36]), 180 ± 15 µM in experiment [2] (setting [37]) and 62 ± 11 µM in experiment [4].
As to `NCCC[C@H](N)C(=O)O` [Orn, ornithine], on HisBP, the Kd is 72 ± 4 µM.
